Source: US8686187B2, “Ethoxy diphenyl ethane derivatives, preparation processes and uses thereof” (Shanghai Ecust Biomedicine Co., Ltd., priority 2008, dated 2014)
Where two headings read alike, the source gives them in different places.

Assays:
[1] = tested on: S180 sarcoma transplanted tumor; test: Tumor-inhibiting rate experiment, intravenous injection, S180 sarcoma transplanted tumor in mice; format: in vivo; conditions: for Tumor-inhibiting rate (%): d0-d12 seven times, tumor weight; for tumor volume observation in drug administered group: around the eighth day after drug administration
Experimental: After 1 week for adaptation, mice are subcutaneously inoculated with S180 sarcoma tissues and randomly grouped after the tumor grows as much as the area of 100 to 300 mm^3; every compound is used for 6 mice in drug administered group and for 12 mice in control group, the administration doses are as below: 25, 50 mg/kg of ECB1P, ECB1GN hydrochloride, ECB1SN hydrochloride and positive controls ECA4P, ECA4GN hydrochloride, as well as 50, 100 mg/kg of positive controls CB1GA hydrochloride, CB1P and CA4P, the administration is given intravenously on Day d0, d2, d4, d6, d8, d10 and d12, seven times in total, measurement of tumor volume, mice weighing and data recording are performed three times every week, the mice are executed on the fourtheenth day after inoculation, tumor tissues are weighed to calculate the tumor-inhibiting rate, tumor weight inhibiting rate %=(1−average tumor weight in treatment group/average tumor weight in control group)×100%.

Kunming mice = test: Acute toxicity test of single mice intraperitoneal injection; format: in vivo; conditions: for LD50: 14 days observation
Experimental: Kunming mice (half-and-half male and female, 17 to 22 grams heavy) are randomly grouped according to weights thereof, and during the test, the mice are divided, based on the proportion of 0.9, into 10 dose groups with each including 10 mice and having the maximal dose of 1500 mg/kg, the tested drugs having the respective doses of 1500, 1350, 1215, 1093, 984, 885, 797, 717, 645 and 581 mg/kg are administered in a manner of single intraperitoneal injection, mice observation and death rate recording are respectively performed once 0.25 h, 0.5 h, 1 h, 2 h, 4 h and 24 h after the drug administration, afterwards, everyday mice observation and death rate recording are performed for 14 days, the mice that are not dead are executed on the fifteenth day and are subjected to pathological anatomy.

Gastric cancer SGC-7901 = test: Antitumor activity evaluation for in vitro cultured tumor cells (SRB); format: cell-based
[2] = tested on: Human colorectal cancer cell HT-29; test: as above; format: cell-based; conditions: for times stronger than positive control CB1: colorectal cancer HT-29
[3] = tested on: Non-small cell lung cancer cell NCl-H292; test: as above; format: cell-based
Liver cancer Bel-7402 = test: as above; format: cell-based
[4] = tested on: Human umbilical vein endothelial cell (HUVEC); test: Proliferation inhibition of human umbilical vein endothelial cells (SRB); format: cell-based
[5] = NCl-H292, 48 hours, SRB, read-out: IC50
[6] = SGC-7901, 48 hours, SRB, read-out: IC50
[7] = HT-29, 48 hours, SRB, read-out: IC50
[8] = Bel-7402, 48 hours, SRB, read-out: IC50

Q: How did the “Tumor-inhibiting rate (%)” value ([1]; 50 mg/kg intravenously) turn out when “3,4,5-trimethoxy-3′-glycylamino-4′-ethoxydiphenylethane [CB1GN hydrochloride]” was run?
A: 26%

Q: Which results are given for “3,4,5-trimethoxy-3′-glycylamino-4′-ethoxydiphenylethane [ECB1GN hydrochloride]”?
A: Tumor-inhibiting rate (%) ([1]; 25 mg/kg intravenously): 40%; tumor volume observation in drug administered group [1]: tendency of tumor shrinkage; toxicity compared with positive controls (Kunming mice): toxicity lower than ethoxydiphenylethylene positive control compounds ECA4P and ECA4GN hydrochloride; LD50 (Kunming mice): 1012 mg/kg

Q: How did the “Tumor-inhibiting rate (%)” value ([1]; 25 mg/kg intravenously) turn out when “3,4,5-trimethoxy-4′-ethoxydiphenylethane-3′-o-disodium phosphate salt [ECB1P]” was run?
A: 42%

Q: And the “tumor volume observation in drug administered group” value [1]?
A: tendency of tumor shrinkage

Q: What about the “toxicity compared with positive controls” value (Kunming mice) of the same molecule?
A: toxicity lower than ethoxydiphenylethylene positive control compounds ECA4P and ECA4GN hydrochloride

Q: What about the LD50 (Kunming mice) of the same molecule?
A: 1056 mg/kg

Q: “3,4,5-trimethoxy-4′-methoxydiphenylethane3′-o-disodium phosphate salt [CB1P]” was tested. Which “Tumor-inhibiting rate (%)” value ([1]; 50 mg/kg intravenously) did it give?
A: 28%

Q: And the LD50 (Kunming mice)?
A: 1228 mg/kg

Q: What does the source list for `COc1ccc(/C=C\c2cc(OC)c(OC)c(OC)c2)cc1O` [CA4, (Z)-3,4,5-trimethoxy-3′-hydroxy-4′-methoxydiphenylethylene]?
A: IC50 (Gastric cancer SGC-7901; Homo sapiens, SGC-7901, 48 hours, SRB, read-out: IC50): 3.6 nM; IC50 ([2]; Homo sapiens, HT-29, 48 hours, SRB, read-out: IC50): 21 nM; IC50 [3, 5]: 2400 nM; IC50 (Liver cancer Bel-7402; Homo sapiens, Bel-7402, 48 hours, SRB, read-out: IC50): 830 nM; IC50 ([4]; 48 hours, SRB, read-out: IC50): 4.8 nM; IC50 ([4]; Homo sapiens, 48 h, SRB, read-out: IC50): 4.8 to 7.7 nM

Q: With `COc1ccc(CCc2cc(OC)c(OC)c(OC)c2)cc1O` [CB1, 3,4,5-trimethoxy-3′-hydroxy-4′-methoxydiphenylethane] as the molecule, how does the IC50 (Gastric cancer SGC-7901; [6]) read?
A: 4.2 nM

Q: And the IC50 [2, 7]?
A: 35 nM

Q: And the IC50 [3, 5]?
A: 2800 nM

Q: And the IC50 (Liver cancer Bel-7402; [8])?
A: 1700 nM

Q: What about the IC50 ([4]; 48 hours, SRB, read-out: IC50) of the same molecule?
A: 5.6 nM

Q: For `COc1ccc(CCc2cc(OC)c(OC)c(OC)c2)cc1N` [CB1N, 3,4,5-trimethoxy-3′-amino-4′-methoxydiphenylethane], which IC50 (Gastric cancer SGC-7901; [6]) is on record?
A: 4.8 nM

Q: What about the IC50 [2, 7] of the same molecule?
A: 39 nM

Q: What about the IC50 [3, 5] of the same molecule?
A: 3000 nM

Q: And the IC50 (Liver cancer Bel-7402; [8])?
A: 2500 nM

Q: And the IC50 ([4]; 48 hours, SRB, read-out: IC50)?
A: 7.7 nM

Q: Which IC50 (Gastric cancer SGC-7901; Homo sapiens, SGC-7901, 48 h) does the source give for `CCOc1ccc(/C=C\c2cc(OC)c(OC)c(OC)c2)cc1O` [ECA4, (Z)-3,4,5-trimethoxy-3′-hydroxy-4′-ethoxydiphenylethylene] here?
A: 0.25 nM

Q: What about the IC50 ([2]; Homo sapiens, HT-29, 48 h) of the same molecule?
A: 0.28 nM

Q: And the IC50 ([3]; 48 h)?
A: 160 nM

Q: What about the IC50 (Liver cancer Bel-7402; Homo sapiens, Bel-7402, 48 h) of the same molecule?
A: 63 nM

Q: What about the IC50 ([4]; Homo sapiens, 48 h) of the same molecule?
A: 0.8 nM

Q: Which results are given for `CCOc1ccc(/C=C\c2cc(OC)c(OC)c(OC)c2)cc1NC(=O)CN.Cl` [ECA4GN hydrochloride, (Z)-3,4,5-trimethoxy-3′-glycylamino-4′-ethoxydiphenylethane]?
A: Tumor-inhibiting rate (%) ([1]; 25 mg/kg intravenously): 39%; Tumor-inhibiting rate (%) ([1]; 50 mg/kg intravenously, listed as ECA4GN hydrochlonde): 64%; tumor volume observation in drug administered group [1]: tendency of tumor shrinkage; LD50 (Kunming mice): 912 mg/kg

Q: Which IC50 (Gastric cancer SGC-7901; Homo sapiens, SGC-7901, 48 h) does the source give for `CCOc1ccc(/C=C\c2cc(OC)c(OC)c(OC)c2)cc1N` [ECA4N, (Z)-3,4,5-trimethoxy-3′-amino-4′-ethoxydiphenylethylene] here?
A: 0.19 nM

Q: What about the IC50 ([2]; Homo sapiens, HT-29, 48 h) of the same molecule?
A: 0.15 nM

Q: What about the IC50 ([3]; 48 h) of the same molecule?
A: 100 nM

Q: What about the IC50 (Liver cancer Bel-7402; Homo sapiens, Bel-7402, 48 h) of the same molecule?
A: 39 nM

Q: What about the IC50 ([4]; Homo sapiens, 48 h) of the same molecule?
A: 0.76 nM

Q: Which results are given for `CCOc1ccc(/C=C\c2cc(OC)c(OC)c(OC)c2)cc1OP(=O)([O-])[O-].[Na+].[Na+]` [ECA4P, (Z)-3,4,5-trimethoxy-4′-ethoxydiphenylethylene-3′-o-disodium phosphate salt]?
A: Tumor-inhibiting rate (%) ([1]; 25 mg/kg intravenously): 43%; tumor volume observation in drug administered group [1]: tendency of tumor shrinkage; LD50 (Kunming mice): 906 mg/kg

Q: Which IC50 (Gastric cancer SGC-7901; [6]) does the source give for `CCOc1ccc(CCc2cc(OC)c(OC)c(OC)c2)cc1O` [ECB1, 3,4,5-trimethoxy-3′-hydroxy-4′-ethoxydiphenylethane] here?
A: 0.28 nM

Q: And the IC50 [2, 7]?
A: 0.34 nM

Q: And the “times stronger than positive control CB1” value [2]?
A: about 100 times

Q: And the IC50 [3, 5]?
A: 170 nM

Q: What about the IC50 (Liver cancer Bel-7402; [8]) of the same molecule?
A: 57 nM

Q: What about the IC50 ([4]; 48 hours, SRB, read-out: IC50) of the same molecule?
A: 0.75 nM

Q: With `CCOc1ccc(CCc2cc(OC)c(OC)c(OC)c2)cc1N` [ECB1N, 3,4,5-trimethoxy-3′-amino-4′-ethoxydiphenylethane] as the molecule, how does the IC50 (Gastric cancer SGC-7901; [6]) read?
A: 0.15 nM

Q: And the IC50 [2, 7]?
A: 0.18 nM

Q: What about the “times stronger than positive control CB1” value [2] of the same molecule?
A: about 200 times

Q: And the IC50 [3, 5]?
A: 120 nM

Q: What about the IC50 (Liver cancer Bel-7402; [8]) of the same molecule?
A: 34 nM

Q: And the IC50 ([4]; 48 hours, SRB, read-out: IC50)?
A: 0.68 nM

Q: How did the “Tumor-inhibiting rate (%)” value ([1]; 25 mg/kg intravenously) turn out when `CCOc1ccc(CCc2cc(OC)c(OC)c(OC)c2)cc1NC(=O)C(N)CO.Cl` (centres unmarked) [ECB1SN hydrochloride, 3,4,5-trimethoxy-3′-serylamino-4′-ethoxydiphenylethane] was run?
A: 45%

Q: What about the “tumor volume observation in drug administered group” value [1] of the same molecule?
A: tendency of tumor shrinkage

Q: What about the “toxicity compared with positive controls” value (Kunming mice) of the same molecule?
A: toxicity lower than ethoxydiphenylethylene positive control compounds ECA4P and ECA4GN hydrochloride

Q: And the LD50 (Kunming mice)?
A: 1185 mg/kg

Q: What does the source list for “(Z)-3,4,5-trimethoxy-4′-methoxydiphenylethylene-3′-o-disodium phosphate salt [CA4P]”?
A: Tumor-inhibiting rate (%) ([1]; 50 mg/kg intravenously): 28%; LD50 (Kunming mice): 1276 mg/kg
